Reference: article PMC10534582, “A Pharmacokinetic Study of Sixteen Major Bioactive Components of Jinshui-Huanxian Granules in Pulmonary Fibrosis Model and Control Rats Using Orbitrap Fusion Mass Spectrometry” (Molecules, 2023)
Like-named read-outs stand apart in the source and are kept apart here.

Key:
[1] = because of poor gastrointestinal absorption; cited from earlier work
[2] = Pharmacokinetics of JHG components in control rats after intragastric administration of JHGs (plasma, Orbitrap Fusion MS); type: in vivo, Sprague Dawley (SD) rats; settings: for AUC(0-inf) / AUC(0-t) / half-life / MRT last / MRT inf / Tmax / Cmax: male, rat, plasma, po; for MRT last: read-out: MRT(0-t); for MRT inf: read-out: MRT(0-∞); for Cmax: intragastric JHGs
Experimental: (§1) Healthy male Sprague Dawley (SD) rats of SPF grade (240 ± 20 g) were purchased from Sipeifu (Beijing, China) Biotechnology Co., Ltd. (Beijing, China), Certificate of Conformity No.: SCYK (Beijing, China) 2019-0015, Animal Quality Certificate No.: 110324220102348616. They were housed in the Animal Center of Henan University of Traditional Chinese Medicine, which passed the ethical audit, ethics number: DWLL202208003, breeding Co. 24 °C, relative humidity 50 ± 2%. The animals fasted for 12 h before the experiment and drank water freely. All feeding and experimental studies on experimental animals were in accordance with the regulations on the Management of Experimental Animals in Henan Province.
(§2) Twenty-four healthy male SD rats or PF model rats, weighing 240 ± 20 g, fasted for 12 h before the experiment and drank water freely. Both kinds of rats were randomly divided into four groups. Blank group: equal dose of water by intragastric, low dose; administration group: rats were given the equivalent human dose of JHGs by intragastric, i.e., 10.8 g of raw drug/kg/d (5.70 g/kg/d); medium-dose administration group: 2 times the human equivalent dose of JHGs by intragastric, i.e., 21.6 g of raw drug/kg/d (11.41 g/kg/d); high-dose administration group: 4 times the human equivalent dose of JHG, i.e., 43.2 g of raw drug/kg/d (22.81 g/kg/d). Blood was collected from the tail vein before and 0.083, 0.25, 0.5, 0.75, 1, 1.5, 2, 3, 4, 6, 8, 12, 18, and 24 h after dosing, respectively. A total of 0.5 mL was placed in a heparin sodium centrifuge tube. Whole blood was left for 30 min and then centrifuged in a low-temperature freezing centrifuge (4 °C, 3000 r/min) for 15 min. The upper layer of plasma was collected and stored in a refrigerator at −80 °C.
(§3) We added 50 μL of internal standard solution and 800 μL of methanol, shook for 15 min, then centrifuged at 12,000 r/min for 10 min, took the supernatant, dried in a centrifuge concentrator, added 50 μL of the initial mobile phase to the residue, dissolved, centrifuged, then separated the upper layer of the solution used as the test solution. A total of 5 μL test solution was taken into the sample for analysis. For each compound with a certain dosage, the same procedure is repeated six times in parallel. The concentration in plasma was calculated by the internal standard method.
(§4) Accucore C18 (100 mm × 2.1 mm, 2.6 μm) column at 25 °C, the mobile phase was methanol (A)-0.1% formic acid aqueous solution (B). The gradient elution program was 0–4 min (65% B-40% B), 4–5 min (40% B-40% B), 5–6 min (40% B-28% B), and 6–7 min (28% B-19% B), 7–7.5 min (19% B-10% B), 7.5–11 min (10% B-0% B), the flow rate was 0.2 mL/min, and the injection volume was 5 μL.
The ion source was an electrospray ionization source (ESI). Nitrogen acted as a carrier gas. The sheath gas pressure was 35 Arb. The auxiliary gas pressure was 7 Arb. The spray voltage was 3.50 kv(+), 2.50 kv(-). The ion transport tube temperature was regulated at 300 °C. Gasification temperature was 275 °C. The resolution was 50,000. The scanning mode was set as SIM mode. The optimized parameters obtained are in Table 5.
Under the established Orbitrap Fusion MS method, the pharmacokinetics of JHG in rats were studied to investigate the dynamic changes of the active components in rats. The pharmacokinetic parameters of each component in each dosing group were calculated by […] model analysis using Kinetica 5.1 (Innaphase, Waltham, MA, USA) pharmacokinetic analysis software. The pharmacotemporal curves were plotted by the plotting software. SPSS 19.0 (IBM, Armonk, NY, USA) was used to analyze all the parameters. Independent sample tests were performed after natural logarithmic transformation for AUC0–t, Cmax. The nonparametric Mann–Whitney test was applied for Tmax, t½, and MRT0–t. p < 0.05 was considered statistically significant.

[3] = Pharmacokinetics of JHG components in pulmonary fibrosis (PF) model rats after intragastric administration of JHGs (plasma, Orbitrap Fusion MS); type: in vivo, Sprague Dawley (SD) rats; settings: for pharmacokinetic process (versus dosage) / Tmax: PF model rats; for pharmacokinetic process (versus dosage): low, medium, high doses of JHGs; for Tmax: male, Sprague-Dawley, rat, plasma, po, after administration of JHGs, read-out: Tmax of all dosages
Experimental: as §1
The PF model in rats was replicated by reference to the conclusion tracheal intubation method in the literature. After the rats were anesthetized, bleomycin (BLM) (5 mg/kg) was used as an induction agent and followed the tracheal intubation method. BLM solution was aspirated with a 1 mL syringe and injected into the indwelling syringe. A total of 0.3 mL of air was rapidly pushed into the syringe, the rats were immediately stroked upright so that the BLM solution was evenly distributed in both lungs. BLM was given on day 0 for modeling, then gavage was taken after day 28, with fasting without water for 12 h before sampling. The histopathological examination was performed to verify the construction of the PF model. The rats were anesthetized by the abdominal cavity, then the lung tissues were violently shocked by opening the chest, and the right lower lobe of the lung was taken and fixed in 4% formaldehyde solution, then dehydrated by sucrose gradient, paraffin-embedded, and sectioned. H&E and Masson staining were performed to observe the degree of alveolitis of lung tissue and the degree of pulmonary fibrosis, respectively. The inflammation and fibrosis of lung tissues was observed under the light microscope.
as §2, §3
as §4, with “μL. […]” for “μL.”

[4] = Sprague Dawley, 5.7 g/kg/day, JHGs low dose 5.70 g/kg/d
[5] = Sprague Dawley, 5.7 g/kg/day, JHGs low dose 5.70 g/kg/d, read-out: Tmax
[6] = Sprague Dawley, 5.7 g/kg/day, low dose 5.70 g/kg/d, n=6 (1st of 3 stacked values)
[7] = Sprague Dawley, 11.41 g/kg/day, JHGs medium dose 11.41 g/kg/d
[8] = Sprague Dawley, 11.41 g/kg/day, JHGs medium dose 11.41 g/kg/d, read-out: Tmax
[9] = Sprague Dawley, 11.41 g/kg/day, medium dose 11.41 g/kg/d, n=6 (2nd of 3 stacked values)
[10] = Sprague Dawley, 22.81 g/kg/day, JHGs high dose 22.81 g/kg/d
[11] = Sprague Dawley, 22.81 g/kg/day, JHGs high dose 22.81 g/kg/d, read-out: Tmax
[12] = Sprague Dawley, 22.81 g/kg/day, high dose 22.81 g/kg/d, n=6 (3rd of 3 stacked values)

SMILES	pharmacokinetic process (versus dosage) [3]	Tmax, PF model group compared with the control group ([3]; PF model vs control rats)	Tmax [3]	Clearances ([2]; JHGs high dose 22.81 g/kg/d)	Vss ([2]; JHGs high dose 22.81 g/kg/d)	Clearances ([2]; JHGs low dose 5.70 g/kg/d)	Vss ([2]; JHGs low dose 5.70 g/kg/d)	Clearances ([2]; JHGs medium dose 11.41 g/kg/d)	Vss ([2]; JHGs medium dose 11.41 g/kg/d)	AUC(0-inf) [2, 4]	AUC(0-t) [2, 4]	half-life [2, 4]	MRT last [2, 4]	MRT inf [2, 4]	Tmax [2, 5]	Cmax [2, 6]	AUC(0-inf) [2, 7]	AUC(0-t) [2, 7]	half-life [2, 7]	MRT last [2, 7]	also measured
CC(C)=CCC[C@](C)(O[C@@H]1O[C@H](CO[C@@H]2OC[C@H](O)[C@H](O)[C@H]2O)[C@@H](O)[C@H](O)[C@H]1O)[C@H]1CC[C@]2(C)[C@@H]1[C@H](O)C[C@@H]1[C@@]3(C)CC[C@H](O[C@@H]4O[C@H](CO)[C@@H](O)[C@H](O)[C@H]4O[C@@H]4O[C@H](CO)[C@@H](O)[C@H](O)[C@H]4O)C(C)(C)[C@@H]3CC[C@]12C [Ginsenoside Rb2]	linear pharmacokinetic process	slightly increased	≤ 2 h	–	–	–	–	–	–	–	–	–	–	–	–	–	–	–	–	–	bioavailability, oral administration [1]: low; pharmacokinetic process (Cmax and AUCs versus dosage) ([2]; low, medium, high doses of JHGs): linear pharmacokinetic process; reduction of Cmax in PF model group relative to control ([3]; PF model vs control rats): about 1/3; Cmax, PF model group compared with the control group ([3]; PF model vs control rats, medium dose selected for comparison): significantly decreased; AUCs, PF model group compared with the control group ([3]; PF model vs control rats, p < 0.05): significantly decreased
CC1CCC2N(C1)CC1C3CC4C(CC(=O)C5CC(O)CCC54C)C3CCC1C2(C)O (stereo not drawn) [Peiminine]	–	decreased significantly	–	112 ± 30.2 mL/min/kg	67.52 ± 15.96 L	46.2 ± 14 mL/min/kg	28.03 ± 8.27 L	61 ± 18.7 mL/min/kg	40.68 ± 9.67 L	31.9 ± 9.55 ng·h/mL	29.1 ± 8.48 ng·h/mL	6.06 ± 0.22 h	8.01 ± 0.09 h	10.2 ± 0.32 h	4.67 ± 1.15 h	2.91 ± 0.9 ng/mL	43.9 ± 16.4 ng·h/mL	38.6 ± 13.2 ng·h/mL	7.97 ± 0.84 h	8.23 ± 0.25 h	MRT inf [2, 7]: 11.3 ± 1.03 h; Tmax [2, 8]: 4 h; Cmax [2, 9]: 4.22 ± 1.27 ng/mL; AUC(0-inf) [2, 10]: 46.1 ± 13.7 ng·h/mL; AUC(0-t) [2, 10]: 42 ± 11.7 ng·h/mL; half-life [2, 10]: 6.82 ± 0.57 h; MRT last [2, 10]: 7.84 ± 0.1 h; MRT inf [2, 10]: 10.1 ± 0.42 h; Tmax [2, 11]: 3 h; Cmax [2, 12]: 5.31 ± 1.61 ng/mL
C[C@@H]1O[C@@H](OC[C@H]2O[C@@H](Oc3c(-c4ccc(O)c(O)c4)oc4cc(O)cc(O)c4c3=O)[C@H](O)[C@@H](O)[C@@H]2O)[C@H](O)[C@H](O)[C@H]1O [Rutin]	linear pharmacokinetic process	–	≤ 2 h	–	–	–	–	–	–	–	–	–	–	–	–	–	–	–	–	–	correlation between CL, AUCs (AUC(0–t), AUC (0–∞)), t½, and dose [2]: no correlation; Tmax ([2]; Sprague-Dawley, after administration of JHGs, read-out: Tmax of all dosages): ≤ 2 h
COc1cc(O)c2c(c1)oc(=O)c1c3cc(O)c(O)cc3oc21 [Wedelolactone]	linear pharmacokinetic process	–	–	0.1 ± 0 mL/min/kg	0.07 ± 0.01 L	0.05 ± 0.017 mL/min/kg	0.04 ± 0 L	0.05 ± 0 mL/min/kg	0.03 ± 0.01 L	139 ± 45.6 ng·h/mL	110 ± 24.7 ng·h/mL	10.7 ± 3.69 h	7.52 ± 0.34 h	14 ± 3.66 h	2 h	18.6 ± 3.98 ng/mL	276 ± 35.6 ng·h/mL	242 ± 32.4 ng·h/mL	8.01 ± 1.33 h	8.23 ± 0.18 h	MRT inf [2, 7]: 11.6 ± 1.32 h; Tmax [2, 8]: 3.67 ± 0.58 h; Cmax [2, 9]: 27.8 ± 2.35 ng/mL; AUC(0-inf) [2, 10]: 262 ± 13.5 ng·h/mL; AUC(0-t) [2, 10]: 221 ± 17.2 ng·h/mL; half-life [2, 10]: 8.2 ± 0.63 h; MRT last [2, 10]: 7.5 ± 0.21 h; MRT inf [2, 10]: 12 ± 1.32 h; Tmax [2, 11]: 1.83 ± 0.29 h; Cmax [2, 12]: 35.4 ± 2.29 ng/mL; MRT(0–t), PF model group compared with the control group ([3]; PF model vs control rats): decreased
